Test results from ChEMBL document CHEMBL4619716, “Machine Learning in Mass Spectrometry: A MALDI-TOF MS Approach to Phenotypic Antibacterial Screening” (2020).
Calls of active or inactive are those of the source. The calls are words filed in the database; no cut-off is given here.

These molecules were tested on Escherichia coli (assay: Antimicrobial activity against Escherichia coli ATCC 25922 assessed as induction of changes in mass spectral profile of bacteria by measuring decrease in peak at m/z 6320 and increase in peak at m/z 6405 at 1/16 to 1 times MIC uM by MALDI-TOF MS analysis).
Type: functional, organism-based

| Compound | Activity |
| --- | --- |
| CC1(C)S[C@@H]2[C@H](NC(=O)[C@H](N)c3ccc(O)cc3)C(=O)N2[C@H]1C(=O)O | Dose-dependent effect |

What follows are molecules tested on Escherichia coli (assay: Antimicrobial activity against Escherichia coli ATCC 25922 assessed as induction of changes in mass spectral profile of bacteria 1 times MIC uM by MALDI-TOF MS analysis).
Type: functional, organism-based

| Compound | Activity |
| --- | --- |
| CO/N=C(\C(=O)N[C@@H]1C(=O)N2C(C(=O)O)=C(COC(N)=O)CS[C@H]12)c1ccco1 | Active |
| CO/N=C(\C(=O)N[C@@H]1C(=O)N2C(C(=O)O)=C(COC(C)=O)CS[C@H]12)c1csc(N)n1 | Active |
| CN[C@H](CC(C)C)C(=O)N[C@H]1C(=O)N[C@@H](CC(N)=O)C(=O)N[C@H]2C(=O)N[C@H]3C(=O)N[C@H](C(=O)N[C@H](C(=O)O)c4cc(O)cc(O)c4-c4cc3ccc4O)[C@H](O)c3ccc(c(Cl)c3)Oc3cc2cc(c3O[C@@H]2O[C@H](CO)[C@@H](O)[C@H](O)[C@H]2O[C@H]2C[C@](C)(N)[C@H](O)[C@H](C)O2)Oc2ccc(cc2Cl)[C@H]1O | Active |
| CC1(C)S[C@@H]2[C@H](NC(=O)Cc3ccccc3)C(=O)N2[C@H]1C(=O)O | Active |
| CC1(C)S[C@@H]2[C@H](NC(=O)[C@H](N)c3ccc(O)cc3)C(=O)N2[C@H]1C(=O)O | Active |
